Where “and” joins values, the source holds several entries; their conditions need not be identical. Equal entries are not always repeated.
Key:
[1] = test system: Colo 205 colon cancer cell line; experiment: NCI-60 single-dose screening; type: cell-based; conditions: 10 µM
Method: (§1) Screening against the cancer cell lines was carried out at the National Cancer Institute (NCI, Bethesda, Maryland, USA) applying the standard protocol of the NCI[22].
(§2) The final target compounds were submitted to the National Cancer Institute (NCI), Maryland, USA[23]. Thirty-one compounds were selected to be tested over 60 cell lines at single dose 10 µM.

[2] = test system: HCC-2998 colon cancer cell line; experiment: NCI-60 single-dose screening; type: cell-based; conditions: 10 µM
Method: as §1, §2

[3] = test system: LOX IMVI melanoma cell line; experiment: NCI-60 single-dose screening; type: cell-based; conditions: 10 µM
Method: as §1, §2

[4] = test system: SF-295 CNS cancer cell line; experiment: NCI-60 single-dose screening; type: cell-based; conditions: 10 µM
Method: as §1, §2

[5] = test system: SK-MEL-28 melanoma cell line; experiment: NCI-60 single-dose screening; type: cell-based; conditions: 10 µM
Method: as §1, §2

[6] = test system: SK-MEL-5 melanoma cell line; experiment: NCI-60 single-dose screening; type: cell-based; conditions: 10 µM
Method: as §1, §2

CNS cancer cell lines = experiment: NCI five-dose testing, subpanel mean; type: cell-based; conditions: subpanel IV: CNS cancer
Method: as §1

Leukaemia cell lines = experiment: NCI five-dose testing, subpanel mean; type: cell-based; conditions: subpanel I: Leukaemia
Method: as §1

breast cancer cell lines = experiment: NCI five-dose testing, subpanel mean; type: cell-based; conditions: subpanel IX: breast cancer
Method: as §1

colon cancer cell lines = experiment: NCI five-dose testing, subpanel mean; type: cell-based; conditions: subpanel III: colon cancer
Method: as §1

melanoma cell lines = experiment: NCI five-dose testing, subpanel mean; type: cell-based; conditions: subpanel V: melanoma
Method: as §1

[7] = test system: non-small cell lung cancer cell lines; experiment: NCI five-dose testing, subpanel mean; type: cell-based; conditions: subpanel II: non-small cell lung cancer
Method: as §1

[8] = test system: ovarian cancer cell lines; experiment: NCI five-dose testing, subpanel mean; type: cell-based; conditions: subpanel VI: ovarian cancer
Method: as §1

[9] = test system: prostate cancer cell lines; experiment: NCI five-dose testing, subpanel mean; type: cell-based; conditions: subpanel VIII: prostate cancer
Method: as §1

renal cancer cell lines = experiment: NCI five-dose testing, subpanel mean; type: cell-based; conditions: subpanel VII: renal cancer
Method: as §1

[10] = test system: A498 renal cancer cell line; experiment: NCI five-dose testing; type: cell-based; conditions: A498
Method: as §1

[11] = test system: HOP-92 non-small cell lung cancer cell line; experiment: NCI five-dose testing; type: cell-based; conditions: HOP-92
Method: as §1

[12] = test system: HT-29 colon cancer cell line; experiment: NCI five-dose testing; type: cell-based; conditions: HT-29
Method: as §1

[13] = test system: K-562 leukaemia cell line; experiment: NCI five-dose testing; type: cell-based; conditions: K-562
Method: as §1

[14] = test system: MDA-MB-468 breast cancer cell line; experiment: NCI five-dose testing; type: cell-based; conditions: MDA-MB-468
Method: as §1

[15] = test system: OVCAR-4 ovarian cancer cell line; experiment: NCI five-dose testing; type: cell-based; conditions: OVCAR-4
Method: as §1

[16] = test system: PC-3 prostate cancer cell line; experiment: NCI five-dose testing; type: cell-based; conditions: PC-3
Method: as §1

[17] = test system: SK-MEL-5 melanoma cell line; experiment: NCI five-dose testing; type: cell-based; conditions: SK-MEL-5
Method: as §1

[18] = test system: U251 CNS cancer cell line; experiment: NCI five-dose testing; type: cell-based; conditions: U251
Method: as §1

BRAF (V600E) = molecular target: T1, BRAF (V600E) (Homo sapiens, UniProt P15056, V600E); experiment: In vitro kinase screening (Kinase HotSpot); type: biochemical
T1 construct: purchased Reaction Biology Corp
T1 sequence (P15056 whole entry V600E): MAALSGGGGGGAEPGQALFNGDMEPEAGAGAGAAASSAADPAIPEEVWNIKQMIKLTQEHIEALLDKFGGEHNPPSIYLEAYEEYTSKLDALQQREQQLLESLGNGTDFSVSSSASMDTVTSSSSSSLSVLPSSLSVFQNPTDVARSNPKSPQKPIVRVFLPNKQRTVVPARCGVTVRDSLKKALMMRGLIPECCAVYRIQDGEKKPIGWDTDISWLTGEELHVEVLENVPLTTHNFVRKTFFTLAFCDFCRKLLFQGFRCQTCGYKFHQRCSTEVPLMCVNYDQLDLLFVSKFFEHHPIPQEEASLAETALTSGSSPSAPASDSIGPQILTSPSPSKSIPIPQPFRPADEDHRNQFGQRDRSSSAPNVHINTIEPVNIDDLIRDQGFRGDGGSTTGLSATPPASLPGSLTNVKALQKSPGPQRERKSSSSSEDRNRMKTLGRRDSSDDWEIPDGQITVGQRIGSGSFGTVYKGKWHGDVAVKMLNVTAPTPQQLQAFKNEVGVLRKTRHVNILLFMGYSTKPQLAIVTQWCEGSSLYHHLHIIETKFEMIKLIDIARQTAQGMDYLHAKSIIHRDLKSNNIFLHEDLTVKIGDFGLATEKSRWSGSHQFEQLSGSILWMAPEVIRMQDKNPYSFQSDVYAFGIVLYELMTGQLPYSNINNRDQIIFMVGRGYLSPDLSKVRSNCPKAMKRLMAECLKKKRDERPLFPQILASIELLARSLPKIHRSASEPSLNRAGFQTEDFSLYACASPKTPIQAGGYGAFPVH
From the text: (§3) To investigate the biological target of compound, Reaction Biology Corp. Kinase HotSpotSM service was used adopting standard assay protocol.

JNK2 = molecular target: T2, JNK2 (Homo sapiens, UniProt P45984); experiment: In vitro kinase screening (Kinase HotSpot); type: biochemical
T2 construct: purchased Reaction Biology Corp
T2 sequence (P45984 whole entry): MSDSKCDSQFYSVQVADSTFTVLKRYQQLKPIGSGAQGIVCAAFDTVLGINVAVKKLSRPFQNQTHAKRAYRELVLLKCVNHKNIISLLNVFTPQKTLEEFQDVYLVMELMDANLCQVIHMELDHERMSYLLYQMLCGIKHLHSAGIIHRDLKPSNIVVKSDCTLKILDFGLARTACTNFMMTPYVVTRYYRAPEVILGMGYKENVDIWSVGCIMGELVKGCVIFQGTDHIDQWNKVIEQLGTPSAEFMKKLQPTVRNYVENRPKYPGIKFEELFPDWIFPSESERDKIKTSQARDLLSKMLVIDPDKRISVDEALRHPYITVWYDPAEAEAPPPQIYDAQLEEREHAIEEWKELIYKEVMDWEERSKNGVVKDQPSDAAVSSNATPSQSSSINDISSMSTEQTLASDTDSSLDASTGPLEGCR
From the text: as §3

Plasma stability = type: in vitro ADME; conditions: 37 °C, 10 µM
Method: About 10 µM of compound 2l was mixed with human plasma and rat plasma and the mixture was shaked at 37 °C for 30 min and 120 min. After each time interval, acetonitrile was added and the mixture was centrifugated (14000 rpm, 4 °C). The supernatant was injected into the LC-MS to detect the remaining amount of compound 2l.

hERG = molecular target: T3, hERG (Homo sapiens, UniProt Q12809); experiment: hERG binding assay (hERG Fluorescence Polarization Assay)
T3 construct: purchased Invitrogen PV5365
T3 sequence (Q12809 whole entry): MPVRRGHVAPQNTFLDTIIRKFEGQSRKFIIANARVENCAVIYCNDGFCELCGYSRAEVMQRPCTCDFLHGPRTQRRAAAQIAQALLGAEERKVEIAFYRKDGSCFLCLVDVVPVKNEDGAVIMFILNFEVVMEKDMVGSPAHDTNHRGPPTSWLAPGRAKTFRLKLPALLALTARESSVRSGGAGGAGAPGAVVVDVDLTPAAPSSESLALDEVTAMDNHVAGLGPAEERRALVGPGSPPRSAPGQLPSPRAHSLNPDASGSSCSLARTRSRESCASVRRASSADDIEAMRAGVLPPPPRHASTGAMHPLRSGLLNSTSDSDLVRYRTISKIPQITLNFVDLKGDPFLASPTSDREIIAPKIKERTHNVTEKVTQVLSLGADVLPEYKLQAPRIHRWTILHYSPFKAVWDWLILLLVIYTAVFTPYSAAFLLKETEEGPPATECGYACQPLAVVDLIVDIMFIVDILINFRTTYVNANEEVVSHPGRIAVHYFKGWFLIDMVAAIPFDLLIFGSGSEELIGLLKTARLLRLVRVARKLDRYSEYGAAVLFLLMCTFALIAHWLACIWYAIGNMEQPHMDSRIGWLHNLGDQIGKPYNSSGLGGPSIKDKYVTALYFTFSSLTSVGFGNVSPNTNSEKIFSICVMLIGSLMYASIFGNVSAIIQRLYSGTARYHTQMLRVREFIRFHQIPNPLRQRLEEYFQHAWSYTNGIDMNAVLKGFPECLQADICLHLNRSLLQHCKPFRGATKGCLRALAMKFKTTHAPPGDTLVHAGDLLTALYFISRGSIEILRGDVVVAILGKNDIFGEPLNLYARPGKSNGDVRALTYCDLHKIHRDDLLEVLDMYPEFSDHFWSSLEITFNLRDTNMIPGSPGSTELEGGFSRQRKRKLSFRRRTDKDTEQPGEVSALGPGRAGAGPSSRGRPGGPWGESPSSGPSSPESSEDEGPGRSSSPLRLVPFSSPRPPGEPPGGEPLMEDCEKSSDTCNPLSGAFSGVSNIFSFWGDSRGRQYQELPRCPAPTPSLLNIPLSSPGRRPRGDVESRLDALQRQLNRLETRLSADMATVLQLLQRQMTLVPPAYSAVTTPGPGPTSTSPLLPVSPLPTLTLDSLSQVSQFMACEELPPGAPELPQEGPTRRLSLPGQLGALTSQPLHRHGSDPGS
Method: hERG binding assay was performed using hERG Fluorescence Polarization Assay (Invitrogen: PV5365) assay kit and Synergy Neo (Biotek) and standard procedures were applied.

[19] = In vivo pharmacokinetic assay; conditions: SD rats, 10 mg/kg, mean, N = 3
Method: Serum samples were collected each 30 min. The blood concentration of the test compounds was determined by LC-MS/MS (Agilent 1290 infinity II series equipped with on-line degasser, binary pump, thermostatted well-plate autosampler and column compartment, Waters Atlantis® HSS T3 (2.1 × 100 mm, 1.9 µm) column, and mobile phase linear gradient from 95% A (0.1% formic acid in water) /5% B (0.1% formic acid in acetonitrile) to 5% A/95% B, 6500+ QTRAP LC-MS/MS/MS system, Turbo Spray Ion Drive as ion source, and Carbamazepine as internal standard. Pharmacokinetic parameters were obtained by non-compartmental analysis of the plasma concentration–time profiles using KineticaTM 4.4.1 (Thermo Fisher Scientific, Inc., Woburn, MA, USA).

[20] = read-out: TGI (total growth inhibition concentration)

O=S(=O)(NCCCNc1cc(-c2cn(-c3ccccc3)nc2-c2cccc(O)c2)ccn1)c1ccc(Cl)cc1 [Compound 2l, 4-Chloro-N-(3-((4-(3-(3-hydroxyphenyl)-1-phenyl-1H-pyrazol-4-yl)pyridin-2-yl)amino)propyl) benzenesulfonamide]
per cent inhibition [1]: 170.28%
per cent inhibition [2]: 162.39%
per cent inhibition [3]: 129.50%
per cent inhibition [4]: 155.19%
per cent inhibition [5]: 136.19%
per cent inhibition [6]: 156.35%
IC50 (CNS cancer cell lines): 1650 nM
IC50 (Leukaemia cell lines): 1440 nM
IC50 (breast cancer cell lines): 1580 nM
IC50 (colon cancer cell lines): 1510 nM
IC50 (melanoma cell lines): 1680 nM
IC50 [7]: 2320 nM
IC50 [8]: 2090 nM
IC50 [9]: 2280 nM
IC50 (renal cancer cell lines): 2060 nM
IC50 [10]: 330 nM
LD50 (lethal dose 50) [10]: 6.9 µM
IC (TGI) [10, 20]: 2200 nM
IC50 [11]: 1520 nM
LD50 (lethal dose 50) [11]: 93.2 µM
IC (TGI) [11, 20]: 4700 nM
LD50 (lethal dose 50) [12]: 4.7 µM
IC50 ([12]; read-out: IC50): 470 nM
IC (TGI) [12, 20]: 1700 nM
IC50 [13]: 430 nM
LD50 (lethal dose 50) [13]: >100 µM
IC (TGI) [13, 20]: 2500 nM
IC50 [14]: 1160 nM
LD50 (lethal dose 50) [14]: >100 µM
IC (TGI) [14, 20]: 4600 nM
IC50 [15]: 1670 nM
LD50 (lethal dose 50) [15]: >100 µM
IC (TGI) [15, 20]: 5900 nM
LD50 (lethal dose 50) [16]: >100 µM
IC50 ([16]; read-out: IC50): 1740 nM
IC (TGI) [16, 20]: 6100 nM
IC50 [17]: 1230 nM
LD50 (lethal dose 50) [17]: 5.3 µM
IC (TGI) [17, 20]: 2500 nM
LD50 (lethal dose 50) [18]: 8.8 µM
IC50 ([18]; read-out: IC50): 1350 nM
IC (TGI) [18, 20]: 3400 nM
IC50 (BRAF (V600E); BRAF(V600E)): 1160 ± 40 nM
Inhibition % (BRAF (V600E); single dose of 10 µM, BRAF (V599E) in Table 6, BRAF (V600E) in text): 93.67 ± 0.47%
IC50 (JNK2): 360 ± 70 nM
Inhibition % (JNK2; single dose of 10 µM, 10 µM): 98.47% and 98.49 ± 0.02%
Plasma stability, remaining unchanged (Plasma stability; Human plasma, 30 min): 100%
Plasma stability, remaining unchanged (Plasma stability; Human plasma, 30 min, listed as 2 l): 100%
Plasma stability, remaining unchanged (Plasma stability; Human plasma, 120 min): 95.3%
Plasma stability, remaining unchanged (Plasma stability; Human plasma, 120 min, listed as 2 l): 95.3%
Plasma stability, remaining unchanged (Plasma stability; Rat plasma, 30 min): 100%
Plasma stability, remaining unchanged (Plasma stability; Rat plasma, 120 min): 100%
IC50 (hERG): 8280 nM
AUCinf ([19]; IV): 1478.2 ng·h/mL
AUClast ([19]; IV): 1471.6 ng·h/mL
CL ([19]; IV): 113 mL/min/kg
t1/2 ([19]; IV): 5.8 h
AUCinf ([19]; PO): 142.1 ng·h/mL
AUClast ([19]; PO): 136.0 ng·h/mL
Cmax ([19]; PO): 36.6 ng/mL
F (oral bioavailability) ([19]; PO): 9.2%
Tmax ([19]; PO): 0.5 h
t1/2 ([19]; PO): 6.1 h

Reference: paper PMC6211260 (Journal of Enzyme Inhibition and Medicinal Chemistry, 2018)
